{"source": "patent US20040204577A1", "about": "“Novel peptide-forming enzyme gene” (Ajinomoto Co., Inc., priority 2003, published 2004)", "assay_type_in_all_cases": "biochemical, Empedobacter brevis", "key": {"[1]": {"tested_on": "peptide-forming enzyme (Mono S fraction enzyme)", "assay": "Enzyme substrate specificity (1)-(10), (13), (14): peptide production", "design": "key: +: those for which production was confirmed but which were unable to be quantified due to the absence of a standard; a trace amount", "conditions": "0.1 unit enzyme, 25° C.", "procedure": "(§1) Ester specificity was examined in the case of using L-amino acid ester for the carboxy component. 2 μl of the same enzyme fraction as used in Example 5 was added to 100 μl of 100 mM borate buffer (pH 9.0) containing the carboxy components indicated in Table 4 at 100 mM, 200 mM L-glutamine and 10 mM EDTA, and allowed to react at 25° C. for 2 hours. HCl represents hydrochloride in Table 4.\n(§2) Peptide production was examined in the case of using L-alanine methyl ester for the carboxy component and using various L-amino acids for the amine component.\n(§3) Peptide production was examined in the case of using various types of L-amino acid methyl esters for the carboxy component and using L-glutamine for the amine component. 2 μl of the same enzyme fraction as used in Example 5 was added to 100 μl of 100 mM borate buffer (pH 9.0) containing the L-amino acid methyl ester hydrochloride salts (AA-OMe.HCl) shown in Table 6 at 100 mM, 150 mM L-glutamine and 10 mM EDTA, and allowed to react at 25° C. for 3 hours. […] Furthermore, Tween-80 was added to the reaction system to a final concentration of 0.1% in the case of using L-Trp-OMe and L-Tyr-OMe.\n(§4) Peptide production was examined in the case of using various L-amino acid methyl esters for the carboxy component and various L-amino acids for the amine component. 2 μl of the same enzyme fraction as used in Example 5 was added to 100 μl of 100 mM borate buffer (pH 9.0) containing the L-amino acid methyl ester hydrochloride salts (AA-OMe.HCl) shown in Table 7 at 100 mM, the L-amino acids shown in Table 7 at 150 mM and 10 mM EDTA, and allowed to react at 25° C. for 3 hours. The “tr” indicates a trace amount. Furthermore, Tween-80 was added to the reaction system to a final concentration of 0.1% in the case of using L-Trp-OMe.\nPeptide production was examined in the case of using the L or D forms of various amino acid methyl esters for the carboxy component, and the L or D forms of various amino acids for the amine component. […]"}, "[2]": {"tested_on": "peptide-forming enzyme (Mono S fraction enzyme)", "assay": "Enzyme substrate specificity (1)-(10), (13), (14): peptide production", "design": "key: +: those peptides for which production was confirmed but which were unable to be quantified due to the absence of a standard; a trace amount", "conditions": "0.1 unit enzyme, 25° C.", "procedure": "as §1, §2, §3, §4\nPeptide production was examined in the case of using the L or D forms of various amino acid methyl esters for the carboxy component, and the L or D forms of various amino acids for the amine component. 2 μl of the same enzyme fraction as used in Example 5 was added to 100 μl of 100 mM borate buffer (pH 9.0) containing the various amino acid methyl ester hydrochloride salts (AA-OMe HCl) shown in Table 8 at 100 mM, the various amino acids shown in Table 8 at 150 mM and 10 mM EDTA, and allowed to react at 25° C. for 3 hours. The “tr” indicates a trace amount.\nPeptide production was examined using various L-amino acid amides for the carboxy component, and various L-amino acids for the amine component. 2 μl of the same enzyme fraction as that used in Example 5 was added to 100 μl of 100 mM borate buffer (pH 9.0) containing the L-amino acid amide hydrochloride salt (M-NH2.HCl) shown in Table 9 at 100 mM, the L-amino acids shown in Table 9 at 150 mM and 10 mM EDTA, and allowed to react at 25° C. for 3 hours.\nPeptide production was examined in the case of using various L-alanine methyl esters for the carboxy component and C-protected L-amino acids for the amine component. 2 μl of the same enzyme fraction as used in Example 5 was added to 100 μl of 100 mM borate buffer (pH 9.0) containing the L-alanine methyl ester hydrochloride hydrochloride salt (Ala-OMe.HCl) shown in Table 10 at 100 mM, the L-amino acid amide hydrochloride salts shown in Table 10 at 150 mM and 10 mM EDTA, and allowed to react at 25° C. for 3 hours.\nPeptide production was examined in the case of using various amino acid methyl esters for the carboxy component and methylamine for the amine component. 2 μl of the same enzyme fraction as used in Example 5 was added to 100 μl of 100 mM borate buffer (pH 9.0) containing the amino acid methyl ester hydrochloride salt (M-OMe.HCl) shown in Table 11 at 100 mM, the methylamine shown in Table 11 at 150 mM and 10 mM EDTA, and allowed to react at 25° C. for 3 hours.\nPeptide production was examined in the case of using […] for the carboxy component or β-amino acid for the amine component."}, "[3]": {"tested_on": "peptide-forming enzyme (Mono S fraction enzyme)", "assay": "Production of L-alanyl-L-glutamine from L-alanine methyl ester and L-glutamine with enzyme fraction", "conditions": "100 mM L-alanine methyl ester hydrochloride, 200 mM L-glutamine, 10 mM EDTA, pH 9.0, 18° C.; FIG. 3", "procedure": "On the other hand, there was hardly any production of L-Ala-L-Gln observed in an enzyme-non-added lot, and the […] was only about 0.07 mM after reacting for 120 minutes."}, "[4]": {"tested_on": "peptide-forming enzyme (Mono S fraction enzyme)", "assay": "Enzyme substrate specificity (1)-(10), (13), (14): peptide production", "conditions": "L-amino acid ester 100 mM, peptide (amine component) 150 mM, pH 9.0, 25° C., 3 hours", "how_it_was_run": "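Mono S enzyme fraction in 100 mM borate buffer (pH 9.0) with 10 mM EDTA and 100 mM carboxy component (amino acid methyl esters or amides); amine components (L-glutamine, amino acids, amino acid amides or methylamine) at 150 mM, or 200 mM L-glutamine with varied esters. Reactions ran at 25° C for 2–3 hours; 0.1% Tween-80 added for Trp/Tyr-OMe.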"}, "[5]": {"tested_on": "peptide-forming enzyme (Mono S fraction enzyme)", "assay": "Enzyme inhibitors: effects on the production of L-alanyl-L-glutamine"}, "[6]": {"conditions": "carboxy component 100 mM, amine component 150 mM, reaction time 2 hr"}, "[7]": {"conditions": "carboxy component 40 mM, amine component 40 mM, reaction time 3 hr"}, "[8]": {"conditions": "carboxy component 100 mM, amine component 150 mM, reaction time 3 hr"}, "[9]": {"conditions": "inhibitor at 10 mM, borate buffer pH 9.0, 25° C., 5 minutes, 100 = absence of enzyme inhibitor"}}, "note": "Where a SMILES comes first, the peptide text is derived from it. [ ]: non-standard residue; d: D form. The star is where a group is joined. 2Nal = N[C@@H](Cc1ccc2ccccc2c1)C(=O)O; Cha = N[C@@H](CC1CCCCC1)C(=O)O; Tle = CC(C)(C)[C@H](N)C(=O)O; Boc = CC(C)(C)OC(=O)*; tBu = CC(C)(C)*", "data": [{"compound": "C[C@H](N)C(=O)N[C@@H](Cc1ccc2ccccc2c1)C(=O)O", "note": "[H-Ala-2-Nal-OH] (H-Ala-[2Nal]-OH)", "values": [{"measurement": "Produced peptide", "setting": "[1]; carboxy component 20 mM, amine component 20 mM, reaction time 3 hr", "value": "+"}]}, {"compound": "CC(C)(C)OC[C@H](N)C(=O)N[C@@H](CCC(N)=O)C(=O)O", "note": "[H-Ser(tBu)-Gln-OH] (H-Ser(tBu)-Gln-OH)", "values": [{"measurement": "Produced peptide", "setting": "[2]; [6]", "value": "tr"}]}, {"compound": "N[C@@H](CC1CCCCC1)C(=O)N[C@@H](Cc1ccccc1)C(=O)O", "note": "[H-CHA-Phe-OH] (H-[Cha]-Phe-OH)", "values": [{"measurement": "Produced peptide", "setting": "[1]; [7]", "value": "+"}]}, {"compound": "NC(=O)CC[C@H](NC(=O)[C@@H](N)Cc1ccc(Cl)cc1)C(=O)O", "note": "[H-Cl-F-Phe-H-Gln-OH]", "values": [{"measurement": "Produced peptide", "setting": "[2]; carboxy component 25 mM, amine component 50 mM, reaction time 3 hr", "value": "tr"}]}, {"compound": "CN[C@@H](C)C(=O)N[C@@H](Cc1ccccc1)C(=O)O", "note": "[H-N-Me-Ala-Phe-OH]", "values": [{"measurement": "Produced peptide", "setting": "[2]; [8]", "value": "tr"}]}, {"compound": "L-Ala-L-Ala-L-Gln", "values": [{"measurement": "Peptide formed, enzyme-added lot", "setting": "[3]", "value": 1.3, "unit": "mM"}, {"measurement": "Produced peptide", "setting": "[4]", "value": 15.2, "unit": "mM"}]}, {"compound": "O=C(O)CN(CCN(CC(=O)O)CC(=O)O)CC(=O)O", "note": "[EDTA, ethylene diamine tetraacetic acid]", "values": [{"measurement": "Relative activity of L-Ala-L-Gln production", "setting": "[5]; [9]", "value": 96, "unit": "%"}]}, {"compound": "NC(=O)CC[C@H](NC(=O)[C@@H](N)Cc1ccc2ccccc2c1)C(=O)O", "note": "[H-2-Nal-H-Gln-OH] (H-[2Nal]-Gln-OH)", "values": [{"measurement": "Produced peptide", "setting": "[2]; [7]", "value": "tr"}]}, {"compound": "CCN1C(=O)C=CC1=O", "note": "[N-Ethyl maleimide]", "values": [{"measurement": "Relative activity of L-Ala-L-Gln production", "setting": "[5]; [9]", "value": 110, "unit": "%"}]}, {"compound": "O=S(=O)(F)Cc1ccccc1", "note": "[Phenylmethylsulfonyl fluoride, phenylmethylsulfonyl fluoride]", "values": [{"measurement": "Relative activity of L-Ala-L-Gln production", "setting": "[5]; [9]", "value": 115, "unit": "%"}, {"measurement": "Inhibition of the enzyme (in words)", "setting": "[5]; serine enzyme inhibitors at 10 mM", "value": "not inhibited"}]}, {"compound": "CC(C)(C)OC(=O)NCCCC[C@H](N)C(=O)N[C@@H](CCC(N)=O)C(=O)O", "note": "[H-Lys(Boc)-Gln-OH] (H-Lys(Boc)-Gln-OH)", "values": [{"measurement": "Produced peptide", "setting": "[1]; [6]", "value": "+"}]}, {"compound": "NC(=O)CC[C@H](NC(=O)[C@@H](N)Cc1ccc(F)cc1)C(=O)O", "note": "[H-p-F-Phe-H-Gln-OH]", "values": [{"measurement": "Produced peptide", "setting": "[2]; [8]", "value": "tr"}]}, {"compound": "CC(C)(C)[C@H](N)C(=O)N[C@@H](CCC(N)=O)C(=O)O", "note": "[H-t-Leu-H-Gln-OH] (H-[Tle]-Gln-OH)", "values": [{"measurement": "Produced peptide", "setting": "[2]; [8]", "value": "tr"}]}, {"compound": "O=C(O)CI", "note": "[Monoiodoacetate]", "values": [{"measurement": "Relative activity of L-Ala-L-Gln production", "setting": "[5]; pH 9", "value": 101, "unit": "%"}]}]}
